Reference: patent US10953027B2, “Active agents and methods of their use for the treatment of metabolic disorders and nonalcoholic fatty liver disease” (Flagship Pioneering Innovations V, Inc., priority 2018, dated 2021)

Legend:
Format in all cases: in vitro ADME
[1] = Assay 1. Stability in Simulated Gastric Fluid (SGF); settings: 1 μM, 37° C., SGF pH 1.6 with pepsin
Summary of the method: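 Acylated compounds at a final 1 μM (diluted from 1 mM DMSO stock) were incubated at 37 °C in SGF of pH 1.6 NaCl buffer with FaSSIF powder and 0.1 mg/mL pepsin. Aliquots were quenched with acetonitrile at T0 and regular intervals, and degradation rates were determined by LC/MS.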

[2] = Assay 2. Stability in Simulated Intestinal Fluid (SIF); settings: 1 μM, 37° C., SIF pH 6.7 with pancreatin
Summary of the method: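 Acylated compounds at 1 μM (from 1 mM DMSO stock) in fresh SIF: FaSSIF with pancreatin in pH 6.7 phosphate buffer, agitated at 37 °C. Aliquots from T0 onward quenched with 1 volume acetonitrile; LC/MS gives degradation rates.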

[3] = Assay 3. Fecal Incubation Stability; settings: 1 or 10 μM, human fecal slurry, anaerobic

| SMILES | Assay 1 (SGF) (% Remaining @ 1 hours) [1] | Assay 2 (SIF) (% @ Remaining 4 hours) [2] | Assay 3 (% Remaining at 24 h) [3] |
| --- | --- | --- | --- |
| CCCC(=O)OC[C@H]1O[C@@H](OC(=O)CCc2c[nH]c3ccccc23)[C@H](OC(=O)CCC)[C@@H](OC(=O)CCC)[C@@H]1OC(=O)CCC [Compound 118, [(2R,3R,4S,5R,6S)-3,4,5-tris(butanoyloxy)-6-{[3-(1H-indol-3-yl)propanoyl]oxy}oxan-2-yl]methyl Butanoate] | B (B: 25-75% of the tested compound remaining) | A (A: <25% of the tested compound remaining) | A (A: <25% of the tested compound remaining) |
| CCC(=O)OC[C@H]1O[C@@H](OC(=O)Cc2c[nH]c3ccccc23)[C@H](OC(=O)CC)[C@@H](OC(=O)CC)[C@@H]1OC(=O)CC [Compound 143, [(2R,3R,4S,5R,6S)-6-{[2-(1H-indol-3-yl)acetyl]oxy}-3,4,5-tris(propanoyloxy)oxan-2-yl]methyl Propanoate] | C (C: >75% of the tested compound remaining) | A (A: <25% of the tested compound remaining) | A (A: <25% of the tested compound remaining) |
| O=C(CCc1c[nH]c2ccccc12)O[C@@H]1OC[C@@H](OC(=O)CCc2c[nH]c3ccccc23)[C@@H](OC(=O)CCc2c[nH]c3ccccc23)[C@H]1OC(=O)CCc1c[nH]c2ccccc12 [Compound 113, (2S,3R,4R,5R)-3,4,5-tris({[3-(1H-indol-3-yl)propanoyl]oxy})oxan-2-yl 3-(1H-indol-3-yl)propanoate] | C (C: >75% of the tested compound remaining) | A (A: <25% of the tested compound remaining) | A (A: <25% of the tested compound remaining) |
| CCCC(=O)O[C@@H]1[C@@H](OC(=O)CCC)[C@H](Oc2ccccc2C(=O)O)OC[C@H]1OC(=O)CCC [Compound 227, 2-{[(2S,3R,4S,5R)-3,4,5-tris(butanoyloxy)oxan-2-yl]oxy}benzoic Acid] | C (C: >75% of the tested compound remaining) | A (A: <25% of the tested compound remaining) | A (A: <25% of the tested compound remaining) |
| CCC(=O)O[C@@H]1O[C@@H](C)[C@H](OC(=O)CC)[C@@H](OC(=O)CC)[C@H]1OC(=O)CC [Compound 111, (2S,3R,4R,5S,6S)-6-methyl-3,4,5-tris(propanoyloxy)oxan-2-yl propanoate] | B (B: 25-75% of the tested compound remaining) | A (A: <25% of the tested compound remaining) | A (A: <25% of the tested compound remaining) |
| CCCC(=O)OC[C@H]1O[C@H](OC)[C@H](OC(=O)CCC)[C@@H](OC(=O)CCC)[C@@H]1OC(=O)CCC [Compound 87, [(2R,3R,4S,5R,6S)-3,4,5-tris(butanoyloxy)-6-methoxyoxan-2-yl]methyl Butanoate] | B (B: 25-75% of the tested compound remaining) | A (A: <25% of the tested compound remaining) | A (A: <25% of the tested compound remaining) |
| CCC(=O)OC[C@H]1O[C@H](OC(=O)CCc2c[nH]c3ccccc23)[C@H](OC(=O)CC)[C@@H](OC(=O)CC)[C@@H]1OC(=O)CC [Compound 141, [(2R,3R,4S,5R,6R)-6-{[3-(1H-indol-3-yl)propanoyl]oxy}-3,4,5-tris(propanoyloxy)oxan-2-yl]methyl Propanoate] | C (C: >75% of the tested compound remaining) | A (A: <25% of the tested compound remaining) | A (A: <25% of the tested compound remaining) |
| CCC(=O)O[C@@H]1[C@@H](OC(=O)CC)[C@@H](OC(=O)Cc2c[nH]c3ccccc23)OC[C@@H]1OC(=O)CC [Compound 140, (3S,4S,5R,6R)-6-{[2-(1H-indol-3-yl)acetyl]oxy}-4,5-bis(propanoyloxy)oxan-3-yl Propanoate] | C (C: >75% of the tested compound remaining) | A (A: <25% of the tested compound remaining) | A (A: <25% of the tested compound remaining) |
